Results on one compound are retold here after patent US7670791B1, “Method for the suppression of visceral pain by regulating T-type calcium channel” (Korea Institute of Science and Technology, priority 2001, dated 2010).

For data set [1] the following is noted: inside the body, after peripheral (peritoneal) injection; cited from earlier work.
Data set [2] has as its system visceral pain caused by acetic acid in normal mice. Briefly: Acetic acid-induced visceral pain (writhing test) after mibefradil injection. The format is in vivo. The method, then:
The present inventors injected 0.6% acetic acid into the peritoneal cavity of mice to examine the acetic acid-induced visceral pain response. The visceral pain is elicited secondarily to a delayed inflammatory response and induced abdominal stretching and writhing behavior (Gyires and Torma, Arch Int. Pharmacodyn. Ther., 1984, 267:131-140). Mice were placed individually in a transparent home cage (24×18×12 cm) and allowed to acclimate for at least 60 min. Then, 0.6% acetic acid ([…]) was injected into the peritoneum, after which the mice was returned to the testing chamber. The number of abdominal stretches or writhing motions was counted for 20 min. All mice were used only once in this experiment. […]
Particularly, in order to find out how mibefradil, the T-type calcium channel inhibitor functions, mibefreail was dissolved in 0.9% of NaCl at the concentration of 5 mg/ml. The degree of writhing was measured in a visceral pain inducing experiment 20 minutes after the injection of the said mibefradil at the concentration of 1, 10 and 30 mg/kg respectively in peritoneum of the mice.

Regarding `COCC(=O)O[C@]1(CCN(C)CCCc2nc3ccccc3[nH]2)CCc2cc(F)ccc2[C@@H]1C(C)C` [mibefradil, Mibefradil], the “passage through the brain barrier” value in data set [1] is reported as “cannot pass through the brain barrier”. Also, the “degree of writhing / visceral pain caused by acetic acid” value in data set [2] (normal (wild-type) mice, mibefradil 1, 10 and 30 mg/kg in peritoneum, 20 minutes before test, 0.6% acetic acid i.p., FIG. 4) is “induced analgesia”. For the same compound, the “visceral pain caused by acetic acid” value in data set [2] (wild-type mice, mibefradil injected in the brain) is recorded as “enhanced”.
